Source: PubChem BioAssay (NCI)
Several values for one entry are separate records, joined by “and”; a condition that tells them apart may be missing. Equal entries are not always repeated.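 The compound was tested at five concentrations on cells cultured in 96-well plates, with a 48-hour exposure period. GI50 marks 50% less growth. At the TGI there is no net growth.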

What was measured:
Test in all cases: NCI anticancer screen, dose series, 48 h
MDA-MB-231 breast = system: MDA-MB-231 breast
SNB-75 CNS = system: SNB-75 CNS
ACHN renal = system: ACHN renal
U251 CNS = system: U251 CNS
DU-145 prostate = system: DU-145 prostate
A549 NSCLC = system: A549 NSCLC
IGROV1 ovarian = system: IGROV1 ovarian
COLO 205 colon = system: COLO 205 colon
CCRF-CEM leukemia = system: CCRF-CEM leukemia
NCI-H226 lung = system: NCI-H226 lung

Row | SMILES | GI50 (MDA-MB-231 breast) | TGI (MDA-MB-231 breast) [µM] | GI50 (SNB-75 CNS) | TGI (SNB-75 CNS) | GI50 (ACHN renal) | TGI (ACHN renal) [µM] | GI50 (U251 CNS) | TGI (U251 CNS) | GI50 (DU-145 prostate) | TGI (DU-145 prostate) [µM] | GI50 (A549 NSCLC) | TGI (A549 NSCLC) [µM] | GI50 (IGROV1 ovarian) | TGI (IGROV1 ovarian) | GI50 (COLO 205 colon) | TGI (COLO 205 colon) [µM] | GI50 (CCRF-CEM leukemia) | TGI (CCRF-CEM leukemia) | GI50 (NCI-H226 lung) | TGI (NCI-H226 lung) [µM]
1 | COc1cnc2c(c1)C(=O)c1c-2n(CCCN2CCN(C)CC2)c(=O)c2cc(Cl)ccc12 | 10.7 µM | 23.2 | 0.932 µM | 17.6 µM | 0.783 µM | 14.3 | 7.24 µM | 49.6 µM | 3.18 µM | 19.8 | 4.17 µM | > 100 | 10.4 µM | 87.1 µM | 1.3 µM | > 100 | 0.527 µM | 20.1 µM | 12.3 µM | 36.2
2 | CO[C@H](C(=O)N[C@@H](CCCCNC(=O)OCc1ccccc1)C(=O)OC(C)(C)C)[C@@H]1Cc2cc3cc(OC4CC(OC5CC(O)C(O)C(C)O5)C(O)C(C)O4)c(C)c(O)c3c(O)c2C(=O)[C@H]1OC1CC(OC2CC(OC3CC(C)(O)C(O)C(C)O3)C(O)C(C)O2)C(O)C(C)O1 (stereo partly specified) | 0.939 µM | 3.1 | 0.541 µM | 1.97 µM | 0.67 µM | 4.45 | 0.529 µM | 1.94 µM | 0.842 µM | > 10 | 0.821 µM | 5.28 | 0.449 µM | > 10 µM | 0.689 µM | 3.63 | 0.404 µM | 5.07 µM | 0.673 µM | 2.14
3 | Cn1cc(C2=C(c3c4n(c5ccccc35)CCC(CN)CC4)C(=O)NC2=O)c2ccccc21 (stereo unspecified) | 3.25 µM | 7.13 | 1.09 µM | 4.9 µM | 4.43 µM | 8.67 | 3.74 µM | 7.21 µM | 4.55 µM | 8.21 | 4.14 µM | 9.24 | 3.98 µM | 8.75 µM | 3.49 µM | 7.45 | 5.19 µM | 15.6 µM | 5.01 µM | 16.2
4 | Nc1ccn([C@@H]2C=C(CO)[C@@H](O)[C@H]2O)c(=O)n1 | 0.413 µM | 500 |  | 128 µM and > 625 µM | 0.05 µM | 500 |  | 500 µM and > 625 µM | 0.05 µM | 500 |  |  |  | 222 µM and > 625 µM | 0.0295 µM |  |  | 294 µM and > 625 µM | 0.501 µM | 493
5 | CN1CCN(Cc2ccc(NC(=O)c3cncc(C#Cc4c(N)ncc5cc(F)ccc45)c3)cc2C(F)(F)F)CC1 | 0.477 µM | 1.13 | 2.02 µM | 7.84 µM | 1.99 µM | 8.84 | 1.04 µM | 2.27 µM | 0.874 µM | 1.58 | 0.887 µM | 1.73 | 0.813 µM | 3.02 µM | 0.581 µM | 4.93 | 1.04 µM | 2.65 µM | 0.442 µM | 8.56
6 | COc1cc(-c2nc3ccccc3s2)ccc1OCc1nc2n(n1)S(=O)(=O)c1ccccc1N2C | > 100 µM | > 100 | 99.6 µM | > 100 µM | > 100 µM | > 100 | > 100 µM | > 100 µM | > 100 µM | > 100 | > 100 µM | > 100 | > 100 µM | > 100 µM | > 100 µM | > 100 | > 100 µM | > 100 µM | > 100 µM | > 100
7 | C/C(=C\c1ccn(-c2ccc(N)cc2)n1)[C@@H]1C[C@@H]2O[C@]2(C)CCC[C@H](C)[C@H](O)[C@@H](C)C(=O)C(C)(C)[C@@H](O)CC(=O)O1 | 0.252 µM | > 50 | 0.00754 µM | 0.233 µM | 0.161 µM | > 50 | 0.0321 µM | > 50 µM | 0.0314 µM | 0.577 | 0.0348 µM | > 50 | 0.494 µM | > 50 µM | 0.0175 µM | 0.634 | 0.0338 µM | > 50 µM | > 50 µM | > 50
8 | O=C1/C(=C/c2ccc(Cl)cc2)CN(C(=O)C(Cl)Cl)C/C1=C\c1ccc(Cl)cc1 | 0.27 µM | 0.961 | 0.161 µM | 0.509 µM | 0.214 µM | 0.475 | 0.052 µM | 0.186 µM | 0.357 µM | 1.31 | 0.275 µM | 1.05 | 0.178 µM | 0.422 µM | 0.233 µM | 0.756 | 0.0742 µM | > 59.3 µM | 0.211 µM | 0.454
9 | CC(C)=CCC/C(C)=C/CC/C(=C/COP(=O)(OCc1ccc([N+](=O)[O-])o1)N(C)CCCCCl)C(C)(C)C (stereo unspecified) |  | 1.03 | 15.6 µM | 40 µM |  |  | 1.76 µM | 12 µM | 1.61 µM | 9 | 10.9 µM | 27.5 | 6.29 µM | 22.5 µM | 15.9 µM | 53.1 | 0.0571 µM | 27.4 µM |  | 
10 | O=C(O)CCC1CCC(c2cc(F)ccc2F)(S(=O)(=O)c2ccc(Cl)cc2)CC1 (stereo unspecified) | 30.4 µM and > 100 µM | > 100 | 15.9 µM and > 72.2 µM | 55.8 µM and > 100 µM | 56.7 µM and > 100 µM | > 100 | 32.7 µM and > 100 µM | > 100 µM | 93.4 µM and > 100 µM | > 100 | 44.4 µM and > 100 µM | > 100 | 18 µM and 80.7 µM | 65 µM and > 100 µM | 42.3 µM and > 100 µM | > 100 | 29 µM and > 100 µM | > 100 µM | 41.2 µM and > 100 µM | > 100
11 | NC(=O)Oc1cc(OC(N)=O)cc(N(CCCl)CCCl)c1 | 25.9 µM | > 100 | 2.71 µM | 25.3 µM |  |  | 2.24 µM | 54.9 µM | 3.06 µM | 51.2 | 5.13 µM | 69 | 6.71 µM | 49 µM | 15.2 µM | 38.6 | 0.902 µM | > 100 µM | 14.9 µM | 77.7
12 | COc1cc(C(=O)n2nc(N3CCN(C)CC3)c3cc(N)ccc32)cc(OC)c1OC | 2.92 µM | 21.6 | 4.39 µM | > 100 µM | 4.2 µM | > 100 | 3.65 µM | 25.8 µM | 3.99 µM | > 100 | 6.89 µM | > 100 | 4.88 µM | > 100 µM | 15.5 µM | 37.3 | 3.78 µM | > 100 µM | 5.61 µM | 34.5
